pKi: −log10 of the molar value.

The pKi is −log10 of the Ki, conventionally taken in molar units.

In the experiment the target is T1, integrins haα4 and β1 (VLA-4) expressed on CHO cells (Homo sapiens, UniProt P05556+P13612).
T1 construct: expressed in transfected cells; host or cells: CHO cells
T1 sequence (P13612 34-1032): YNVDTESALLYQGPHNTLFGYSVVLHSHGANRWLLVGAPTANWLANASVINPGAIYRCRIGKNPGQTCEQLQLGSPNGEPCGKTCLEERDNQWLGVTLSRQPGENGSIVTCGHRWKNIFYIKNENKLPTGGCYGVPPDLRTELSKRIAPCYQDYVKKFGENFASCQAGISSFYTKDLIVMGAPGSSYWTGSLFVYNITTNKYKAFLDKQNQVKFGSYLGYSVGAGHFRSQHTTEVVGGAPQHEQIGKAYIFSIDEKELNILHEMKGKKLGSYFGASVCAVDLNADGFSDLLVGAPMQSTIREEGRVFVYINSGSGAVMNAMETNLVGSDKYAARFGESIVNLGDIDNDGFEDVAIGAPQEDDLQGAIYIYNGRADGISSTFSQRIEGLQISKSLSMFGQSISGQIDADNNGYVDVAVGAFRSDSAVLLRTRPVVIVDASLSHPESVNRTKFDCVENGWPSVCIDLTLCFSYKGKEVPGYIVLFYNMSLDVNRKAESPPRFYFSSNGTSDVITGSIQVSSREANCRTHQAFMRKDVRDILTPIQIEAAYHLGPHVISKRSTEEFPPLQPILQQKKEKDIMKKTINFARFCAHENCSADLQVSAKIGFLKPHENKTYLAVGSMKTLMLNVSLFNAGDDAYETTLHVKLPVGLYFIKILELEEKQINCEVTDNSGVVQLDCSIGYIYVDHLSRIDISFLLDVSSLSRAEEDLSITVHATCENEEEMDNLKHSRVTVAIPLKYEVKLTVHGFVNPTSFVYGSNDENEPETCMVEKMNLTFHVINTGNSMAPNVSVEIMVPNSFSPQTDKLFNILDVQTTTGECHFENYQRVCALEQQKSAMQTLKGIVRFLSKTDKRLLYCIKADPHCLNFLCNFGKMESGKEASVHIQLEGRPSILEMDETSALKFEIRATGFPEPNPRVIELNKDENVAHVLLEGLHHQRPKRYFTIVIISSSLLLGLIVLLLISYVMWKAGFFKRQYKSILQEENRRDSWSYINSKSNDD
T1 sequence (P05556 21-798): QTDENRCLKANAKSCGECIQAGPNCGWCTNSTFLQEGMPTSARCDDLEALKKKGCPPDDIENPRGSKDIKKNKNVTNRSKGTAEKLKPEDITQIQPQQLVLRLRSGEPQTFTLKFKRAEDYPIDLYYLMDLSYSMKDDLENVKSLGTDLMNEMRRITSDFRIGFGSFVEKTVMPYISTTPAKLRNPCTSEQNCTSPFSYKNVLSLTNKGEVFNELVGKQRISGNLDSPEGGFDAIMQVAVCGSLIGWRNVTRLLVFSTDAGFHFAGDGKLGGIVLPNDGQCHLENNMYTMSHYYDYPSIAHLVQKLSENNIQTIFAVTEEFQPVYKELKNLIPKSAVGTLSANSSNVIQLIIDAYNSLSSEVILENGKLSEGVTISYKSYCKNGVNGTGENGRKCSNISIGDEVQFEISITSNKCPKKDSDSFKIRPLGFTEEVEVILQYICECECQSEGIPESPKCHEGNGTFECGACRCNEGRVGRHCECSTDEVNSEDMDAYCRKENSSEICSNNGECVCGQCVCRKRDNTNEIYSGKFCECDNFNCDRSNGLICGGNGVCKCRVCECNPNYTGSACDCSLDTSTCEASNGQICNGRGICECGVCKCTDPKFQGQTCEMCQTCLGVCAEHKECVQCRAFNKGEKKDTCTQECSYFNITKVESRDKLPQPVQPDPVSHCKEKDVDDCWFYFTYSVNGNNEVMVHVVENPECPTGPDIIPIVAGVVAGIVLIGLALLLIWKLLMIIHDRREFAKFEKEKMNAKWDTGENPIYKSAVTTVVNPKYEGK
Nature of the experiment: In vitro Evaluation Test (1): binding of Eu3+-hVCAM-1 D1D7-IgG to CHO cells expressing integrins α4 and β1. The note with it: inhibition of Eu3+-hVCAM-1 D1D7-IgG binding to CHO cells expressing α4β1; Ki calculated from IC50. As to the method: CHO cells forcedly expressed by the transduction of integrins haα4 and β1 were seeded in a Coster 3599 plate (3×10^4 cells/100 μl/well) and they were cultured for 2 days. After the medium was washed with buffer A* twice, 50 μl/well of Eu^3+-hVCAM-1 D1D7-IgG diluted to […] with an assay buffer ** was added. To the resulting well was added 50 μl/well of a test compound diluted with 2% DMS0-assay buffer (in the presence or absence of 6% human serum albumin) (to a well subjected to Scatchard analysis was added a solution diluted in another manner). After stirring for 5 minutes on a plate mixer, the plate was allowed to stand at room temperature for 1 hour. Then, the plate was washed four times with the buffer A and added with 100 μl/well of an enhancement reagent (DELFIA). The plate was shaken for 5 minutes on a plate mixer, followed by measurement of fluorescence intensity by a time-resolved fluorometer (DELFIA Wallac). From the binding ratio available by the following calculation formula: ((FT−FNS)−(FI−FNS))/(FT−FNS)×100, the IC50 (concentration inhibiting 50% of binding of CHO cells with hVCAM-1 D1D7-IgG) of the test compound was determined. In the above formula, FT means the fluorescence intensity of the well free of the test compound, FNS means the fluorescence intensity of the well free of the test compound and anti-hα4 antibody (SG/73), and FI means the fluorescence intensity of the well containing the test compound. The Kd indicating the binding strength and Bmax (maximum binding) were estimated within a range of 0.06 to 20 nM in accordance with the Scatchard analysis method.
The value Ki was calculated based on:
[formula] ((L) means a ligand concentration). (* buffer A: 25 mM HEPES (pH 7.5), 150 mM NaCl, 1 mM Ca^2+, 1 MM Mg^2+, 4 mM Mn^2+; ** assay buffer: 25 mM HEPES (pH 7.5), 150 mM NaCl, 1 mM Ca^2+, 1 mM Mg^2+, 4 mM Mn^2+, 0.1% BSA, 20 μM DTPA, with/without 6% ALBUMIN, HUMAN SERUM (C/N A-1653, SIGMA)) In vitro Evaluation Test (2)
On to `Cn1cc(C(=O)Nc2cc(F)c(CC(=O)N3C[C@@H](F)C[C@H]3CN[C@H]3CC[C@H](C(=O)O)CC3)cc2Cl)c2ccccc21` [Example 107, trans-4-(N-(1-((5-Chloro-2-fluoro-4-((1-methyl-3-indolylcarbonyl)amino)phenyl)acetyl)-(4S)-fluoro-(2S)-pyrrolidinylmethyl)amino)cyclohexanecarboxylic acid], for which the pKi was 7.96.

As to `Cn1cc(-c2nc3ccc(CC(=O)N4C[C@@H](F)C[C@H]4CN[C@H]4CC[C@H](C(=O)O)CC4)c(F)c3o2)c2ccccc21` [Example 108, trans-4-(N-(1-((7-Fluoro-2-(1-methyl-3-indolyl)-6-benzoxazolyl)acetyl)-(4S)-fluoro-(2S)-pyrrolidinylmethyl)amino)cyclohexanecarboxylic acid], the negative logarithm of the Ki (pKi) is 7.68.

As for `Cn1cc(C(=O)Nc2cc(F)c(CC(=O)N3C[C@@H](F)C[C@H]3CCN3CCC(C(=O)O)CC3)cc2Cl)c2ccccc21` [Example 109, 1-(2-(1-((5-Chloro-2-fluoro-4-((1-methyl-3-indolylcarbonyl)amino)phenyl)acetyl)-(4S)-fluoro-(2R)-pyrrolidinyl)ethyl)-4-piperidinecarboxylic acid], the pKi was 7.60.

Regarding `Cc1ccc(F)cc1Nc1nc2ccc(CC(=O)N3C[C@@H](F)C[C@H]3C(=O)N[C@H]3CC[C@H](C(=O)O)CC3)c(F)c2o1` [Example 110, trans-4-(((4S)-Fluoro-1-(2-(5-fluoro-2-methylphenylamino)-7-fluoro-6-benzoxazolylacetyl)-(2S)-pyrrolidinyl)carbonylamino)cyclohexanecarboxylic acid], the pKi was 8.15.

Consider `Cn1cc(C(=O)Nc2cc(F)c(CC(=O)N3C[C@@H](F)C[C@H]3C(=O)N[C@H]3CC[C@H](C(=O)O)CC3)cc2Cl)c2ccccc21` [Example 111, trans-4-((1-(5-Chloro-2-fluoro-4-((1-methyl-3-indolylcarbonyl)amino)phenylacetyl)-(4S)-fluoro-(2S)-pyrrolidinyl)carbonylamino)cyclohexanecarboxylic acid], for which the pKi is 8.59.

On to `O=C(Nc1ccc(CC(=O)N2C[C@@H](F)C[C@H]2C(=O)N[C@H]2CC[C@H](C(=O)O)CC2)cc1Cl)c1nccc2ccccc12` [Example 112, trans-4-((1-(3-Chloro-4-((1-isoquinolinylcarbonyl)amino)phenylacetyl)-(4S)-fluoro-(2S)-pyrrolidinyl)carbonylamino)cyclohexanecarboxylic acid], for which the pKi is 8.19.

Regarding `Cn1cc(C(=O)Nc2cc(F)c(CC(=O)N3C[C@@H](OC4CCCCC4)C[C@H]3CO[C@H]3CC[C@H](C(=O)O)CC3)cc2Cl)c2ccccc21` [Example 119, trans-4-(1-((5-Chloro-2-fluoro-4-(1-methyl-3-indolylcarbonylamino)phenyl)acetyl)-(4S)-cyclohexyloxy-(2S)-pyrrolidinylmethoxy)cyclohexanecarboxylic acid], the negative logarithm of the Ki (pKi) is 8.23.

In the case of `CN(C)C(=O)CO[C@H]1C[C@@H](CO[C@H]2CC[C@H](C(=O)O)CC2)N(C(=O)Cc2cc(Cl)c(NC(=O)c3cn(C)c4ccccc34)cc2F)C1` [Example 120, trans-4-(1-((5-Chloro-2-fluoro-4-(1-methyl-3-indolylcarbonylamino)phenyl)acetyl)-(4S)-dimethylcarbamoylmethoxy-(2S)-pyrrolidinylmethoxy)-1-cyclohexanecarboxylic acid], the pKi was 8.72.

Consider `Cc1ccccc1Nc1nc2ccc(CC(=O)N3C[C@H](O)C[C@H]3CO[C@H]3CC[C@H](C(=O)O)CC3)cc2o1` [Example 122, trans-4-((4R)-Hydroxy-1-((2-(2-methylphenylamino)-6-benzoxazolyl)acetyl)-(2S)-pyrrolidinylmethoxy)cyclohexanecarboxylic acid], for which the pKi was 7.54.

For the molecule `Cc1ccccc1Nc1nc2ccc(CC(=O)N3C[C@@H](S(=O)(=O)c4ccccc4)C[C@H]3CO[C@H]3CC[C@H](C(=O)O)CC3)cc2o1` [Example 124, trans-4-(1-((2-(2-Methylphenylamino)-6-benzoxazolyl)acetyl)-(4S)-phenylsulfonyl-(2S)-pyrrolidinylmethoxy)cyclohexanecarboxylic acid], the pKi was 8.85.

As for `CS[C@H]1C[C@@H](CO[C@H]2CC[C@H](C(=O)O)CC2)N(C(=O)Cc2ccc3nc(Nc4cc(F)ccc4C)oc3c2F)C1` [Example 126, trans-4-(1-((2-(5-Fluoro-2-methylphenylamino)-7-fluoro-6-benzoxazolyl)acetyl)-(4S)-methylthio-(2S)-pyrrolidinylmethoxy)cyclohexanecarboxylic acid], the pKi is 8.70.

Take `CS[C@H]1C[C@@H](CO[C@H]2CC[C@H](C(=O)O)CC2)N(C(=O)Cc2cc(Cl)c(NC(=O)c3nn(C)c4ccccc34)cc2F)C1` [Example 127, trans-4-(1-((5-Chloro2-fluoro-4-((1-methyl-3-indazolylcarbonyl)amino)phenyl)acetyl)-(4S)-methylthio-(2S)-pyrrolidinylmethoxy)cyclohexanecarboxylic acid]: the negative-log Ki (pKi) is 8.01.

As to `Cn1cc(C(=O)Nc2cc(F)c(CC(=O)N3C[C@@H](S(C)(=O)=O)C[C@H]3CO[C@H]3CC[C@H](C(=O)O)CC3)cc2Cl)c2ccccc21` [Example 128, trans-4-(1-((5-Chloro-2-fluoro-4-((1-methyl-3-indolylcarbonyl)amino)phenyl)acetyl)-(4S)-methanesulfonyl-(2S)-pyrrolidinylmethoxy)cyclohexanecarboxylic acid], the pKi is 8.57.

Regarding `Cn1nc(C(=O)Nc2cc(F)c(CC(=O)N3C[C@@H](S(C)(=O)=O)C[C@H]3CO[C@H]3CC[C@H](C(=O)O)CC3)cc2Cl)c2ccccc21` [Example 129, trans-4-(1-((5-Chloro-2-fluoro-4-((1-methyl-3-indazolylcarbonyl)amino)phenyl)acetyl)-(4S)-methanesulfonyl-(2S)-pyrrolidinylmethoxy)cyclohexanecarboxylic acid], the negative logarithm of the Ki (pKi) is 8.82.

As for `Cn1cc(-c2nc3ccc(CC(=O)N4CCC[C@H]4CO[C@H]4CC[C@H](C(=O)O)CC4)cc3o2)c2ccc(F)cc21` [Example 131, trans-4-(1-((2-(6-Fluoro-1-methyl-3-indolyl)-6-benzoxazolyl)acetyl)-(2S)-pyrrolidinylmethoxy)-1-cyclohexanecarboxylic acid], the pKi was 7.77.

With `C[C@H]1C[C@@H](CO[C@H]2CC[C@H](C(=O)O)CC2)N(C(=O)Cc2cc(Cl)c(NC(=O)c3cn(C)c4ccccc34)cc2F)C1` [Example 133, trans-4-(1-(5-Chloro-2-fluoro-4-((1-methyl-1H-3-indolylcarbonyl)amino)phenylacetyl)-(4S)-methyl-(2S)-pyrrolidinylmethoxy)cyclohexanecarboxylic acid], the pKi was 7.66.

Turning to `Cc1ccc(F)cc1Nc1nc2ccc(CC(=O)N3C[C@@H](C)C[C@H]3CO[C@H]3CC[C@H](C(=O)O)CC3)c(F)c2o1` [Example 134], the pKi is 8.51.

As to `C[C@H]1C[C@@H](CO[C@H]2CC[C@H](C(=O)O)CC2)N(C(=O)Cc2cc(Cl)c(NC(=O)c3nn(C)c4ccccc34)cc2F)C1` [Example 135, trans-4-(1-(5-Chloro-2-fluoro-4-((1-methyl-1H-3-indazolylcarbonyl)amino)phenylacetyl)-(4S)-methyl-(2S)-pyrrolidinylmethoxy)cyclohexanecarboxylic acid], the negative logarithm of the Ki (pKi) was 7.72.

Values taken from patent US7157487B2, “Vla-4 inhibitors” (Daiichi Pharmaceutical Co., Ltd., priority 2000, dated 2007).
